“And” between values parts separate entries of the source, which are not always exact repeats. Identical values can stand only once.
What was measured:
ABCA1 protein = assay: Cell fractionation: ABCA1 in plasma membrane and microsomal fractions of podocytes; format: cell-based, human; conditions: ratio; Cpd C 1 µM, Cpd A 5 µM, Cpd G 10 µM; single preparations
Procedure: Lysates, or cell fractions were incubated in Laemmli buffer at 55 °C for 10 min under reducing conditions. A total of 30 μg of protein from cell lysates or one-third of the volume collected in cell fraction preparations was separated by SDS-PAGE in 4–20% gradient gels (Biorad) and proteins were then transferred to PVDF membranes. After blocking with 5% TBS-milk, membranes were probed with primary antibodies overnight at 4 °C. The following primary antibodies were used: mouse anti-ABCA1 (Abcam; 1:1000), rabbit anti-GAPDH antibody (Millipore; 1:10,000), mouse anti-actin (CP01, Millipore 1:10,000), anti-MEK, anti-ERp72, anti-V5 and anti-Na^+/K^+ ATPase (Cell Signaling; all 1:1000), and rabbit anti-OSBPL7 (Sigma; 1:1000). After washing, membranes were incubated with anti-rabbit or and anti-mouse IgG-HRP antibodies (Promega, 1:10,000). Signals were detected after incubation with Westernbright ECL HRP substrate (Advansta) and luminescence signals were captured with Azure C600 Gel Imaging workstation (Azure Biosystems Inc, USA) or X-ray films.
Differentiated podocytes were treated with compounds Cpd C (1 μM), Cpd A (5 μM), or Cpd G (10 μM) for 18 h, washed and then harvested in ice-cold PBS. Cells were centrifuged at 1000 × g for 5 min, the supernatant was carefully removed, and the pellet resuspended in hypotonic buffer (15 mM KCl, 1.5 mM MgCl2, 10 mM HEPES and 1 mM DTT) supplemented with a protease inhibitor cocktail (Roche). Cells were disrupted with a glass douncer, and sucrose was added to achieve final concentration of 227 mM. Cell lysates were centrifuged at 1000 × g for 30 min at 4 °C. The supernatant was then transferred to a new tube and centrifuged at 10,000 × g for 15 min at 4 °C. The pellet, containing the microsomal fraction was collected and the supernatant was transferred to a new tube and centrifuged at 100,000 × g for 1 h at 4 °C. The pelleted plasma membrane fraction was collected and the supernatant, containing the organelle-free cytosolic fraction, was concentrated in Vivaspin 500 filter columns. Western blot was performed using antibodies for ABCA1 and specific markers for each membrane fraction as described above. Na^+/K^+ ATPase was used to identify the plasma membrane fraction, ERp72 as a marker for the microsomal-enriched fraction, and MEK as the control for the non-membranous cytosolic fraction.

[1] = test system: Adriamycin (ADR)-induced nephropathy in Balb/c mice; assay: ADR nephropathy: kidney cortex lipids (cholesterol ester, total cholesterol, triglycerides, Oil-red O); format: in vivo, mouse
Procedure: OCT embedded kidney cortex samples were cryosectioned at 4 μm thickness and stained with Oil-Red O-isopropanol solution (Electron Microscopy Science, PA) diluted 6:4 in water, and then counterstained with Hematoxylin Harris Hg Free (VWR, PA). Sections were then evaluated using a light microscope (Olympus BX 41, Tokyo, Japan).
Snap frozen kidney cortex samples were homogenized in 2 mM potassium phosphate buffer, pH 7, (10 µl buffer/mg tissue) using a glass douncer on ice. 100 μl of the homogenate were mixed thoroughly with 1 ml of hexane:isopropanol (3:2;v:v) per volume of tissue homogenate. The aqueous (pellet) and organic (supernatant) phases were separated by centrifugation at 12,000 × g for 5 min. Pellets (aqueous phase) were dried, reconstituted in 8 M urea, 0.1% SDS, 0.1 M NaOH, and total proteins were quantified by the BCA method (Thermofisher). The organic phase was dried by exposure to nitrogen. Lipids were then reconstituted in 100 µl isopropanol:NP-40 (9:1;v:v). Triglyceride content was assayed using a colorimetric kit according to the manufacturer’s instructions (Cayman Chemical USA). Total cholesterol and CE content were assayed using an enzymatic fluorometric method. For total cholesterol measurement, extracts were diluted 1:100 in assay buffer (100 mM potassium phosphate, 50 mM NaCl, 5 mM cholic acid, 0.1% Triton […], pH 7.4) containing cholesterol oxidase (1 U/ml), cholesterol esterase (1 U/ml), horseradish peroxidase (1 U/ml), and Amplex Red (75 µM). The reactions were incubated at 37 °C for 30 min in a black opaque 96-well plate (Greiner) and fluorescence was measured in a microplate reader (Spectramax i3X, Molecular Devices) at 530 nm excitation and 580 emission.
For CE determination, 150 µl of the assay buffer described above, supplemented with bovine liver catalase (45 U/ml) and cholesterol oxidase (1 U/ml), was added to 25 μl of sample and incubated overnight at 37 °C to deplete free cholesterol leaving only cholesterol esters. Then, 75 µl of cholesterol ester detection reagent (1 U/ml cholesterol oxidase, 4 U/ml cholesterol esterase, 24 U/ml horseradish peroxidase, 300 µM Amplex Red) was added. The reaction was incubated at 37 °C for 30 min and the fluorescence signal was measured as described above. Internal standards included samples containing 1 mM of cholesterol and 5 μM of cholesterol oleate in order to verify the completeness of the enzymatic decomposition of free cholesterol as well as assay sensitivity and specificity.

[2] = test system: Adriamycin (ADR)-induced nephropathy in Balb/c mice; assay: ADR nephropathy: liver total cholesterol, cholesterol esters, triglycerides; format: in vivo, mouse
[3] = test system: Adriamycin (ADR)-induced nephropathy in Balb/c mice; assay: ADR nephropathy: WBC, hemoglobin, hematocrit, ALT, AST; format: in vivo, mouse; conditions: ADR-induced nephropathy
[4] = 28 days treatment, 25th quartile
[5] = 28 days treatment, 75th quartile
[6] = 28 days treatment, group maximum
[7] = 28 days treatment, group median
[8] = 28 days treatment, group minimum
[9] = 28 days treatment, individual mouse values

SMILES: Cc1oc(-c2cccc(C(F)(F)F)c2)nc1Cn1c(C)cc2cc(C(O)(C(F)(F)F)C(F)(F)F)ccc21 [Cpd C, reference compound]
- MICROSOMAL FRACTION:ABCA1/ERp72 (ABCA1 protein): 1.10 and 1.82 and 1.06
- PLASMA MEMBRANE FRACTION: ABCA1/NaK ATPase (ABCA1 protein): 1.10 and 0.65 and 0.77 and 1.14
- KIDNEY CORTEX TOTAL CHOLESTEROL ([1]; ADR model, individual animals): 169.86 nmol Chol./mg protein and 129.15 nmol Chol./mg protein and 254.63 nmol Chol./mg protein and 268.95 nmol Chol./mg protein and 152.74 nmol Chol./mg protein and 180.44 nmol Chol./mg protein and 182.39 nmol Chol./mg protein and 272.02 nmol Chol./mg protein and 254.98 nmol Chol./mg protein
- KIDNEY CORTEX TRIGLYCERIDES ([1]; ADR model, individual animals): 43.01 nmol Triglyceride /mg protein and 83.04 nmol Triglyceride /mg protein and 58.7 nmol Triglyceride /mg protein and 29.67 nmol Triglyceride /mg protein and 36.87 nmol Triglyceride /mg protein and 243.76 nmol Triglyceride /mg protein and 196.92 nmol Triglyceride /mg protein and 133.68 nmol Triglyceride /mg protein and 574.71 nmol Triglyceride /mg protein
- Animals with higher triglyceride content in kidney cortexes ([1]; ADR, Cpd C 10 mg/Kg): about 30%
- LIVER CHOLESTEROL ESTERS ([2]; ADR model, individual animals): 3.92 nmol CE/ mg protein and 1.48 nmol CE/ mg protein and 3.2 nmol CE/ mg protein and 3.1 nmol CE/ mg protein
- LIVER TOTAL CHOLESTEROL ([2]; ADR model, individual animals): 132 nmol Cholesterol/ mg protein and 89 nmol Cholesterol/ mg protein and 311 nmol Cholesterol/ mg protein and 91 nmol Cholesterol/ mg protein
- LIVER TRIGLICERIDES ([2]; ADR model, individual animals): 48.5 nmol Triglycerides/ mg protein and 45 nmol Triglycerides/ mg protein and 67 nmol Triglycerides/ mg protein and 56 nmol Triglycerides/ mg protein
- Hepatic triglyceride content vs. vehicle-treated controls ([2]; ADR-challenged, 28 days): increased hepatic triglyceride content
- ALT, Median (IQR) [3]: 146 (71-682) U/L
- ALT, Range [3]: 68-838 U/L
- AST, Median (IQR) [3]: 165 (104-371) U/L
- AST, Range [3]: 90-433 U/L
- HTC, Median (IQR) [3]: 55 (45-64) %
- HTC, Range [3]: 43-65%
- Hgb, Median (IQR) [3]: 13.3 g/dL
- Hgb, Range [3]: 11 to 15.9 g/dL
- WBC, Median (IQR) [3]: 6.2 (5.5-7.9) x103cells/µL
- WBC, Range [3]: 5.4-8.3 x103cells/µL
- ALT, QR(25) [3, 4]: 76.25 U/L
- AST, QR(25) [3, 4]: 131.25 U/L
- HTC, QR(25) [3, 4]: 46%
- Hgb, QR(25) [3, 4]: 12.5 g/dL
- WBC, QR(25) [3, 4]: 6.4 x 10^3 cells/ul
- ALT, QR(75) [3, 5]: 369.25 U/L
- AST, QR(75) [3, 5]: 246.25 U/L
- HTC, QR(75) [3, 5]: 64%
- Hgb, QR(75) [3, 5]: 15.4 g/dL
- WBC, QR(75) [3, 5]: 10.3 x 10^3 cells/ul
- ALT, Max [3, 6]: 838 U/L
- AST, Max [3, 6]: 433 U/L
- HTC, Max [3, 6]: 65%
- Hgb, Max [3, 6]: 15.9 g/dL
- WBC, Max [3, 6]: 11.6 x 10^3 cells/ul
- ALT, Median [3, 7]: 146 U/L
- AST, Median [3, 7]: 164.5 U/L
- HTC, Median [3, 7]: 55%
- Hgb, Median [3, 7]: 13.3 g/dL
- WBC, Median [3, 7]: 6.7 x 10^3 cells/ul
- ALT, Min [3, 8]: 68 U/L
- AST, Min [3, 8]: 90 U/L
- HTC, Min [3, 8]: 43%
- Hgb, Min [3, 8]: 11 g/dL
- WBC, Min [3, 8]: 5.4 x 10^3 cells/ul
- Alanine Aminotransferase (ALT) [3, 9]: 213 U/dL and 68 U/dL and 79 U/dL and 838 U/dL
- Aspartate Aminotransferase (AST) [3, 9]: 184 U/dL and 90 U/dL and 145 U/dL and 433 U/dL
- Hematocrit HTC [3, 9]: 64% and 65% and 55% and 46% and 43% and 44%
- White Blood Cells WBC [3, 9]: 10.3 x 10^3 cells/ul and 6.7 x 10^3 cells/ul and 6.5 x 10^3 cells/ul and 5.9 x 10^3 cells/ul and 5.4 x 10^3 cells/ul and 8.3 x 10^3 cells/ul and 6.4 x 10^3 cells/ul and 11.6 x 10^3 cells/ul
